Active and inactive are the calls of the source. The rule behind the calls is not given here.

7 molecules from ChEMBL document CHEMBL4627386, “Bromo-spiroisoxazoline Alkaloids, Including an Isoserine Peptide, from the Caribbean Marine Sponge Aplysina lacunosa” (J Nat Prod, 2020) can be followed below.

This experiment concerns the target Chymotrypsinogen A (Bos taurus) (UniProt P00766). Kind of experiment: Inhibition of bovine alpha-Chymotrypsin up to 25 ug/ml using Ala-Ala-Phe-p-nitroanilide as substrate preincubated for 15 mins followed by substrate addition and measured after 1 hr by colorimetric method.
With `COC1=C(Br)[C@H](O)[C@@]2(C=C1Br)CC(C(=O)NCCc1c[nH]cn1)=NO2`, the inhibition result was “inactive”.

For the molecule `COC(=O)CNC(=O)C1=NO[C@]2(C=C(Br)C(OC)=C(Br)[C@@H]2O)C1`, the inhibition result is “inactive”.

With `COc1c(Br)cc(C/C(=N\O)C(=O)NCCc2c[nH]cn2)c(O)c1Br`, the inhibition result was “inactive”.

With `COC1=C(Br)[C@H](O)[C@@]2(C=C1Br)CC(C(=O)NCCCOc1c(Br)cc(C/C(=N\O)C(=O)NCCc3c[nH]cn3)cc1Br)=NO2`, the inhibition entry was “inactive”.

As to `COC(=O)C1=NO[C@]2(C=C(Br)C(OC)=C(Br)[C@@H]2O)C1`, the inhibition result was “inactive”.

Take `COC1=C(Br)[C@@H](O)[C@]2(C=C1Br)CC(C(=O)NCCCc1cnc(N)[nH]1)=NO2`: the inhibition entry is “inactive”.

As to `COC(=O)C(O)CNC(=O)C1=NO[C@]2(C=C(Br)C(OC)=C(Br)[C@@H]2O)C1` (some centres not stated), the inhibition entry is “inactive”.
